Source: PMC10463010 (RSC Advances, 2023)

What was measured:
[1] = test system: NO production in RAW264.7 stimulated by LPS; test: NO production in LPS-stimulated RAW 264.7; format: cell-based; settings: Mus musculus, RAW264.7, read-out: % inhibition of NO production
TNF = settings: 20 μM, LPS stimulated RAW264.7; cited from earlier work
[2] = Cytotoxic effect on RAW 264.7 using MTT assay; format: cell-based; settings: mouse, RAW 264.7 cells
[3] = molecular target: acetylcholinesterase (AChE) (Homo sapiens, UniProt P22303); test: Acetylcholinesterase inhibition assay; format: biochemical
[4] = In vitro hydrolysis / chemical stability in buffers; format: physicochemical; settings: 0.1 M HCl (simulated gastric conditions), pH 1.4
IL-6 = IL-6 level in LPS-induced RAW 264.7; format: cell-based
TNF-α = TNF-α level in LPS-induced RAW 264.7; format: cell-based; settings: RAW 264.7, in comparison to LPS treated cells
IL-1β = IL-1β level in LPS-induced RAW 264.7; format: cell-based; settings: RAW 264.7, in comparison to LPS treated cells
SK-N-SH Cells = settings: Aβ-induced SK-N-SH cells, increased from 20%; cited from earlier work

Chain of acetylcholinesterase (AChE) (P22303 32-614, species assumed): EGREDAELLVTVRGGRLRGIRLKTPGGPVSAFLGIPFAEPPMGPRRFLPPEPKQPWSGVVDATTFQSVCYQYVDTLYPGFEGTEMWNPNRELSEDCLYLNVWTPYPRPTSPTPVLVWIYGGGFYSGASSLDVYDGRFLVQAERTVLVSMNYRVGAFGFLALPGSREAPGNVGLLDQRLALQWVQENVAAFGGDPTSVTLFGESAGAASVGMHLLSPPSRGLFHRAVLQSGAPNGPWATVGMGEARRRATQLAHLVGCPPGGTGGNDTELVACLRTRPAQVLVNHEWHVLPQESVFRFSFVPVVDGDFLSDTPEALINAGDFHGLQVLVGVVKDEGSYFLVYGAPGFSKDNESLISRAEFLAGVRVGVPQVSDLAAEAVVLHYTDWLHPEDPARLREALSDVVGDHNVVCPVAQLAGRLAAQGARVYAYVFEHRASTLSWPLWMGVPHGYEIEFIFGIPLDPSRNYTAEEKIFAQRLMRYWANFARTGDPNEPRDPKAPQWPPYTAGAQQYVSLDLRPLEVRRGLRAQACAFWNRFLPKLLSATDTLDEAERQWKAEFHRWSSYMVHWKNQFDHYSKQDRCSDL

Question: With `COC(=O)[C@@H](N)CCCNC(N)=N[N+](=O)[O-]` [L-NAME, L-NG-nitro arginine methyl ester, reference compound] as the compound, how does the inhibition at 250 µM [1] read?
Answer: 84.8 ± 0.9%

Question: With `Cn1c(=O)c2[nH]cnc2n(C)c1=O` [theophylline] as the compound, how does the “Effect on TNF production” value (TNF) read?
Answer: suppress TNF production

Question: With `Cn1c(=O)c2c(ncn2CC(=O)OCc2cn(-c3cc(=O)oc4ccccc34)nn2)n(C)c1=O` [15c, (1-(2-Oxo-2H-chromen-4-yl)-1H-1,2,3-triazol-4-yl)methyl-2-(1,3-dimethyl-2,6-dioxo-1,2,3,6-tetrahydro-7H-purin-7-yl)acetate] as the compound, how does the inhibition at 25 µM [1] read?
Answer: 85 ± 0.88%

Question: What about the viability at 24 h, 50 µM [2] of the same compound?
Answer: 88 ± 0.8%

Question: What about the IC50 [3] of the same compound?
Answer: 9.8 ± 0.7 µM

Question: With `COc1ccc(/C=N/NC(=O)Cn2cnc3c2c(=O)n(C)c(=O)n3C)cc1O` [18i, (E)-2-(1,3-Dimethyl-2,6-dioxo-1,2,3,6-tetrahydro-7H-purin-7-yl)-N′-(3-hydroxy-4-methoxybenzylidene)acetohydrazide] as the compound, how does the inhibition at 25 µM [1] read?
Answer: 63.2 ± 0.93%

Question: What about the viability at 24 h, 50 µM [2] of the same compound?
Answer: 105 ± 1.2%

Question: For `COc1ccc(/C=N/NC(=O)Cn2cnc3c2c(=O)n(C)c(=O)n3C)cc1` [18l, (E)-2-(1,3-Dimethyl-2,6-dioxo-1,2,3,6-tetrahydro-7H-purin-7-yl)-N′-(4-methoxybenzylidene)acetohydrazide], which inhibition at 25 µM [1] is on record?
Answer: 85.4 ± 0.87%

Question: And the viability at 24 h, 50 µM [2]?
Answer: 93 ± 1%

Question: Which results are given for `Cn1c(=O)c2c(ncn2CC(=O)N/N=C/c2ccccc2O)n(C)c1=O` [18g, (E)-2-(1,3-Dimethyl-2,6-dioxo-1,2,3,6-tetrahydro-7H-purin-7-yl)-N′-(2-hydroxybenzylidene)acetohydrazide]?
Answer: inhibition at 25 µM [1]: 66.4 ± 0.79%; viability at 24 h, 50 µM [2]: 92 ± 1%

Question: Which inhibition at 25 µM [1] does the source give for `COc1cc(/C=N/NC(=O)Cn2cnc3c2c(=O)n(C)c(=O)n3C)cc(OC)c1OC` [18e, (E)-2-(1,3-Dimethyl-2,6-dioxo-1,2,3,6-tetrahydro-7H-purin-7-yl)-N′-(3,4,5-trimethoxybenzylidene)acetohydrazide] here?
Answer: 71.8 ± 0.9%

Question: And the viability at 24 h, 50 µM [2]?
Answer: 92 ± 1%

Question: What does the source list for `Cn1c(=O)c2c(ncn2CC(=O)N/N=C2/C(=O)Nc3ccccc32)n(C)c1=O` [compound 19, (E)-2-(1,3-Dimethyl-2,6-dioxo-1,2,3,6-tetrahydro-7H-purin-7-yl)-N′-(2-oxoindolin-3-ylidene)acetohydrazide]?
Answer: half-life at 75 μM [4]: 1.8 h; Decrease of IL-6 levels (IL-6; 1 μM, RAW 264.7, in comparison to cells induced by LPS): 47.5%; Decrease of IL-6 levels (IL-6; 10 μM, RAW 264.7, in comparison to LPS treated cells): 57.7%; inhibition at 25 µM [1]: 90 ± 0.88%; viability at 24 h, 50 µM [2]: 89.5 ± 1.1%; Reduction of TNF-α (TNF-α; 1 μM): 31.8%; Reduction of TNF-α (TNF-α; 10 μM): 53%; IC50 [3]: 3.3 ± 0.2 µM; Reduction of IL-1β (IL-1β; 1 μM): 49.4%; Downregulation of IL-1β (IL-1β; 10 μM): 66.7%

Question: Which inhibition at 25 µM [1] does the source give for `COc1ccc(/C=N/NC(=O)Cn2cnc3c2c(=O)n(C)c(=O)n3C)cc1OC` [18d, E-N′-(3,4-Dimethoxybenzylidene)-2-(1,3-dimethyl-2,6-dioxo-1,2,3,6-tetrahydro-7H-purin-7-yl)acetohydrazide] here?
Answer: 70.7 ± 0.87%

Question: What about the viability at 24 h, 50 µM [2] of the same compound?
Answer: 90 ± 1%

Question: Which inhibition at 25 µM [1] does the source give for `Cn1c(=O)c2c(ncn2CC(=O)O)n(C)c1=O` [compound 2, theophylline-7-acetic acid, reference compound] here?
Answer: 58.7 ± 1.82%

Question: What about the viability at 24 h, 50 µM [2] of the same compound?
Answer: 85 ± 1.7%

Question: Which inhibition at 25 µM [1] does the source give for `Cn1c(=O)c2c(ncn2CC(=O)N/N=C/c2ccc3c(c2)OCO3)n(C)c1=O` [18h, (E)-N′-(Benzo[d][1,3]dioxol-5-ylmethylene)-2-(1,3-dimethyl-2,6-dioxo-1,2,3,6-tetrahydro-7H-purin-7-yl)acetohydrazide] here?
Answer: 96.6 ± 0.87%

Question: What about the viability at 24 h, 50 µM [2] of the same compound?
Answer: 93 ± 1%

Question: With `COc1ccc(OC)c(/C=N/NC(=O)Cn2cnc3c2c(=O)n(C)c(=O)n3C)c1` [18c, E-N′-(2,5-Dimethoxybenzylidene)-2-(1,3-dimethyl-2,6-dioxo-1,2,3,6-tetrahydro-7H-purin-7-yl)acetohydrazide] as the compound, how does the inhibition at 25 µM [1] read?
Answer: 75 ± 0.88%

Question: What about the viability at 24 h, 50 µM [2] of the same compound?
Answer: 88 ± 0.8%

Question: Which inhibition at 25 µM [1] does the source give for `COc1cc(/C=N/NC(=O)Cn2cnc3c2c(=O)n(C)c(=O)n3C)ccc1O` [18j, (E)-2-(1,3-Dimethyl-2,6-dioxo-1,2,3,6-tetrahydro-7H-purin-7-yl)-N′-(4-hydroxy-3-methoxybenzylidene)acetohydrazide] here?
Answer: 92.2 ± 0.86%

Question: What about the viability at 24 h, 50 µM [2] of the same compound?
Answer: 89 ± 1%

Question: And the IC50 [3]?
Answer: 14.6 ± 0.5 µM

Question: With `Cc1ccc(C(C)C)c(OC(=O)Cn2cc(COC(=O)Cn3cnc4c3c(=O)n(C)c(=O)n4C)nn2)c1` [15b, (1-(2-(2-Isopropyl-5-methylphenoxy)-2-oxoethyl)-1H-1,2,3-triazol-4-yl)methyl-2-(1,3-dimethyl-2,6-dioxo-1,2,3,6-tetrahydro-7H-purin-7-yl)acetate] as the compound, how does the inhibition at 25 µM [1] read?
Answer: 68.6 ± 0.92%

Question: What about the viability at 24 h, 50 µM [2] of the same compound?
Answer: 97 ± 0.6%

Question: What does the source list for `COc1cccc(/C=N/NC(=O)Cn2cnc3c2c(=O)n(C)c(=O)n3C)c1` [18f, (E)-2-(1,3-Dimethyl-2,6-dioxo-1,2,3,6-tetrahydro-7H-purin-7-yl)-N′-(3-methoxybenzylidene)acetohydrazide]?
Answer: inhibition at 25 µM [1]: 63.2 ± 0.93%; viability at 24 h, 50 µM [2]: 91 ± 1%

Question: For `NC(=S)NN=C1C(=O)Nc2ccccc21` [isatin thiosemicarbazone], which Survival rate (SK-N-SH Cells) is on record?
Answer: approximately 100%

Question: Which inhibition at 25 µM [1] does the source give for `Cn1c(=O)c2c(ncn2CC(=O)N/N=C/c2ccccc2)n(C)c1=O` [18a, E-N′-Benzylidene-2-(1,3-dimethyl-2,6-dioxo-1,2,3,6-tetrahydro-7H-purin-7-yl)acetohydrazide] here?
Answer: 65.4 ± 0.84%

Question: What about the viability at 24 h, 50 µM [2] of the same compound?
Answer: 94 ± 0.2%

Question: With `Cn1c(=O)c2c(ncn2CC(=O)N/N=C/c2ccc(O)cc2)n(C)c1=O` [18b, (E)-2-(1,3-Dimethyl-2,6-dioxo-1,2,3,6-tetrahydro-7H-purin-7-yl)-N′-(4-hydroxybenzylidene)acetohydrazide] as the compound, how does the inhibition at 25 µM [1] read?
Answer: 71.8 ± 0.9%

Question: What about the viability at 24 h, 50 µM [2] of the same compound?
Answer: 87 ± 0.8%
